Measurements: patent US20180042983A1, “THERAPEUTIC COMPOSITIONS INCLUDING MITOCHONDRIAL FISSION INHIBITOR PEPTIDES, VARIANTS THEREOF, AND METHODS OF USING THE SAME” (STEALTH PEPTIDES INTERNATIONAL, INC., priority 2015, published 2018)

What was measured:
[1] = test system: several mammalian cell types; conditions: cited from earlier work
neonatal cardiomyocytes = assay: Ang II-induced mitochondrial ROS in neonatal cardiomyocytes (Mitosox flow cytometry); format: cell-based, mouse; conditions: after Ang II (1 μM, 3 hours)
Protocol: Ventricles from mouse neonates younger than 72 hours will be dissected, minced, and enzymatically digested with Blendzyme 4 (45 mg/mL, Roche). After enzymatic digestion, cardiomyocytes will be enriched using differential pre-plating for 2 hours, and seeded on fibronectin-coated culture dishes for 24 hours in DMEM (Gibco) with 20% Fetal Bovine Serum (Sigma) and 25 μM Arabinosylcytosine (Sigma). Cardiomyocytes will be stimulated with Angiotensin II (1 μM) for 3 hours in serum-free DMEM containing 0.5% insulin transferrin-selenium (Sigma), 2 mM glutamine, and 1 mg/mL BSA. […] To measure mitochondrial superoxide concentration, Mitosox ([…]) will be incubated for 30 minutes at 37° C. to load cardiomyocytes, followed by 2 washes with Hanks Balanced Salt Solution. Samples will be analyzed using excitation/emission of 488/625 nm by flow cytometry. Flow data will be analyzed using FCS Express (De Novo Software, Los Angeles, Calif., U.S.A.), and presented as histogram distributions of Mitosox fluorescence intensity.

Row | Compound | penetration of the plasma membrane [1] | mitochondrial ROS (Mitosox fluorescence) (neonatal cardiomyocytes)
1 | 2′,6′-Dmt-D-Arg-Phe-Lys-NH2 | readily penetrates the plasma membrane of several mammalian cell types in an energy-independent manner | 
2 | CC(=O)N[C@@H](CS)C(=O)O [N-acetyl cysteine] |  | not show any effect
